Assay results: patent US20220324815A1, “2-PHENOXY-PYRIMIDINE DERIVATIVES AS HERBICIDAL COMPOUNDS” (SYNGENTA CROP PROTECTION AG, priority 2019, published 2022)

How the values were obtained:
Format in all cases: in vivo
Settings in all cases: 250 g/ha unless otherwise stated, evaluated after 13 days, five-point scale
[1] = system: Amaranthus retoflexus (AMARE); assay: Test 1 glasshouse herbicide test, post-emergence application (Table B1)
Outline: (§1)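 Score is % phytotoxicity after 13 days, binned 1 (0–20%) to 5 (81–100%). Compound given at 250 g/ha unless stated, as acetone/water (50:50) spray with 0.5% Tween 20, one day post-sowing (pre-emergence) or after 8 days' growth (post-emergence); glasshouse at 24/16 °C day/night, 14 h light, 65% humidity.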

[2] = system: Echinochloa crus-galli (ECHCG); assay: as above
Outline: as §1

[3] = system: Ipomoea hederacea (IPOHE); assay: as above
Outline: as §1

Lolium perenne (LOLPE) [4] = assay: as above
Outline: as §1

Setaria faberi (SETFA) [5] = assay: as above
Outline: as §1

Solanum nigrum (SOLNI) [6] = assay: as above
Outline: as §1

[7] = system: Amaranthus retoflexus (AMARE); assay: Test 1 glasshouse herbicide test, pre-emergence application (Table B2)
Outline: as §1

[8] = system: Echinochloa crus-galli (ECHCG); assay: as above
Outline: as §1

[9] = system: Ipomoea hederacea (IPOHE); assay: as above
Outline: as §1

Lolium perenne (LOLPE) [10] = assay: as above
Outline: as §1

Setaria faberi (SETFA) [11] = assay: as above
Outline: as §1

Solanum nigrum (SOLNI) [12] = assay: as above
Outline: as §1

| SMILES | % phytotoxicity AMARE, post-emergence application [1] | % phytotoxicity ECHCG, post-emergence application [2] | % phytotoxicity IPOHE, post-emergence application [3] | % phytotoxicity LOLPE, post-emergence application (Lolium perenne (LOLPE) [4]) | % phytotoxicity SETFA, post-emergence application (Setaria faberi (SETFA) [5]) | % phytotoxicity SOLNI, post-emergence application (Solanum nigrum (SOLNI) [6]) | % phytotoxicity AMARE, pre-emergence application [7] | % phytotoxicity ECHCG, pre-emergence application [8] | % phytotoxicity IPOHE, pre-emergence application [9] | % phytotoxicity LOLPE, pre-emergence application (Lolium perenne (LOLPE) [10]) | % phytotoxicity SETFA, pre-emergence application (Setaria faberi (SETFA) [11]) | % phytotoxicity SOLNI, pre-emergence application (Solanum nigrum (SOLNI) [12]) |
| --- | --- | --- | --- | --- | --- | --- | --- | --- | --- | --- | --- | --- |
| O=S(=O)(CCCC(F)(F)F)c1ccccc1Oc1ncc(Cl)cn1 [Compound A6] | 5 (5=81 to 100%) | 3 (3=41 to 60%) | 3 (3=41 to 60%) | 2 (2=21 to 40%) | 4 (4=61 to 80%) | 5 (5=81 to 100%) | 5 (5=81 to 100%) | 4 (4=61 to 80%) | 2 (2=21 to 40%) | 2 (2=21 to 40%) | 5 (5=81 to 100%) | 3 (3=41 to 60%) |
| Fc1cccc(Oc2ncc(Cl)cn2)c1SCCC(F)(F)F [Compound A7] | 5 (5=81 to 100%) | 4 (4=61 to 80%) | 2 (2=21 to 40%) | 2 (2=21 to 40%) | 5 (5=81 to 100%) | 5 (5=81 to 100%) | 5 (5=81 to 100%) | 5 (5=81 to 100%) | 2 (2=21 to 40%) | 4 (4=61 to 80%) | 5 (5=81 to 100%) | 4 (4=61 to 80%) |
| [O-][S+](CCC(F)(F)F)c1c(F)cccc1Oc1ncc(Cl)cn1 (stereo not drawn) [Compound A8] | 5 (5=81 to 100%) | 1 (1=0 to 20%) | 2 (2=21 to 40%) | 1 (1=0 to 20%) | 3 (3=41 to 60%) | 4 (4=61 to 80%) | 5 (5=81 to 100%) | 2 (2=21 to 40%) | 2 (2=21 to 40%) | 2 (2=21 to 40%) | 4 (4=61 to 80%) | 4 (4=61 to 80%) |
| O=S(=O)(CCC(F)(F)F)c1c(F)cccc1Oc1ncc(Cl)cn1 [Compound A9] | 5 (5=81 to 100%) | 3 (3=41 to 60%) | 3 (3=41 to 60%) | 3 (3=41 to 60%) | 4 (4=61 to 80%) | 5 (5=81 to 100%) | 5 (5=81 to 100%) | 4 (4=61 to 80%) | 4 (4=61 to 80%) | 4 (4=61 to 80%) | 5 (5=81 to 100%) | 5 (5=81 to 100%) |
